This passage reports MIC results from patent US20260092083A1, “VANCOMYCIN DERIVATIVES WITH SIDEROPHORE MODIFICATION AS NOVEL REPURPOSED ANTIBIOTICS TO COMBAT GRAM-NEGATIVE BACTERIAL INFECTION” (priority 2023, published 2026).

What all share (assay type): cell-based
The subject of test [1] is E. coli (wild-type) BW25113. Briefly: Broth microdilution MIC, E. coli wild-type. The note with it: Escherichia coli, iron-depleted CAMHB, OD600 ≤0.15, read-out: MIC (μg/mL) Gram-negative EC. As for the experimental part: (§1) The test compounds including vancomycin hydrochloride were supplied as a 6.4 mg/mL solution in 100% dimethyl sulfoxide (DMSO) aliquoted into individual wells of a 96-well plate (50 μL per well). […] Standardized inocula were added to the MIC test plates, which were incubated for the prescribed times at 35° C. The N. gonorrhoeae strain was incubated in an atmosphere containing 5% CO2.
(§2) The final optical density of each well at 600 nm was measured using a Tecan Spark plate reader. The compound concentration versus OD600 data were then curve fit using custom software. An MIC value was defined as the lowest compound concentration that led to an OD600 value≤0.15 for the E. coli, K. pneumoniae, P. aeruginosa, A. baumannii, or S. aureus strains. For the N. gonorrhoeae strain, an OD600 value≤0.19 was used as a cutoff to define an MIC value; this higher cut-off value was required because the N. gonorrhoeae MIC plates were covered with plastic seals that increased the background OD600 value.
(§3) JMI Laboratories followed current CLSI quality assurance practices when performing the susceptibility tests. MIC values were validated by concurrently testing the CLSI-recommended ATCC QC reference strains S. aureus ATCC 29213 and K. pneumoniae ATCC 700603. The inoculum density during susceptibility testing was monitored by bacterial colony counts. Where applicable, QC ranges for tested reference strains were those ranges approved or published by CLSI for testing in CAMHB. […] Importantly, the CLSI reference method for testing N. gonorrhoeae is the agar dilution MIC method, which was not used here. Thus, CLSI MIC QC ranges for N. gonorrhoeae could not be applied to the antimicrobials studied here.
(§4) Abbreviations: EC, E. coli (wild-type) BW25113; EC efflux^−, E. coli (tolC) JW5503-1; KPN, K. pneumoniae ATCC 700603; PSA, P. aeruginosa PAO1; PSA efflux^−, P. aeruginosa (multi-pump-gene mutant) PAM1626; ACB, A. baumannii JMI #1186154; GC, N. gonorrhoeae WHO-Z; SA, S. aureus ATCC 29213. Broth microdilution MIC values were measured in iron-depleted CAMHB for all strains except for GC, which was tested in fastidious broth.

In a further test the test system is E. coli (tolC) JW5503-1. In words: Broth microdilution MIC, E. coli efflux-deficient (tolC). The note with it: Escherichia coli, read-out: MIC (μg/mL) Gram-negative EC Efflux. As for the experimental part:
as §1, §2, §3, §4
In general terms: Broth dilution looks for growth in wells or tubes with falling amounts of substance.

Test [2] deals with K. pneumoniae ATCC 700603. Briefly: Broth microdilution MIC, K. pneumoniae. The following applies: Klebsiella pneumoniae, ATCC700603, read-out: MIC (μg/mL) Gram-negative KPN. As for the experimental part: as §1, §2, §3, §4
The next test deals with P. aeruginosa PAO1. Briefly: Broth microdilution MIC, P. aeruginosa. The following applies: Pseudomonas aeruginosa, iron-depleted CAMHB, OD600 ≤0.15, read-out: MIC (μg/mL) Gram-negative PSA. The method, then: as §1, §2, §3, §4
Test [3] concerns P. aeruginosa (multi-pump-gene mutant) PAM1626. In words: Broth microdilution MIC, P. aeruginosa efflux-deficient. The note with it: Pseudomonas aeruginosa, read-out: MIC (μg/mL) Gram-negative PSA Efflux. The method, then:
as §1, §2, §3, §4

For test [4], the system named is A. baumannii JMI #1186154. Briefly: Broth microdilution MIC, A. baumannii. The note with it: Acinetobacter baumannii, iron-depleted CAMHB, OD600 ≤0.15, read-out: MIC (μg/mL) Gram-negative ACB. The method, then: as §1, §2, §3, §4
In a further test the test system is N. gonorrhoeae WHO-Z. Briefly: Broth microdilution MIC, N. gonorrhoeae. The following applies: Neisseria gonorrhoeae, read-out: MIC (μg/mL) Gram-negative GC. The method, then: as §1, §2, §3, §4
A further test deals with S. aureus ATCC 29213. Briefly: Broth microdilution MIC, S. aureus. The following applies: Staphylococcus aureus, ATCC29213, iron-depleted CAMHB, OD600 ≤0.15, read-out: MIC (μg/mL) Gram positive SA. As for the experimental part: as §1, §2, §3, §4

In brackets after ≈: the same amount, converted by molar mass. Some results are limits rather than exact numbers.

With `CNC(CC(C)C)C(=O)N[C@H]1C(=O)N[C@@H](CC(N)=O)C(=O)N[C@H]2C(=O)N[C@H]3C(=O)N[C@H](C(=O)N[C@@H](C(=O)NCc4cn(CCNC(=O)c5ccc(O)c(O)c5Cl)nn4)c4cc(O)cc(O)c4-c4cc3ccc4O)[C@H](O)c3ccc(c(Cl)c3)Oc3cc2cc(c3OC2O[C@H](CO)C(O)C(O)[C@H]2O[C@H]2CC(C)(N)[C@H](O)C(C)O2)Oc2ccc(cc2Cl)[C@H]1O` (some centres unmarked) [Compound 19], the MIC is > 64 µg/mL in test [1]; > 64 µg/mL in the test with E. coli (tolC) JW5503-1; > 64 µg/mL in test [2]; > 64 µg/mL in the test on P. aeruginosa PAO1; > 64 µg/mL in test [3]; 1 µg/mL (≈ 0.574 µM) in test [4]. The MIC with N. gonorrhoeae WHO-Z is > 64 µg/mL; in the test with S. aureus ATCC 29213, 8 µg/mL (≈ 4.59 µM).
Turning to `CNC(CC(C)C)C(=O)NC1C(=O)NC(CC(N)=O)C(=O)NC2C(=O)NC3C(=O)NC(C(=O)N[C@H](C(=O)O)c4cc(O)c(CNCCCNC(=O)c5ccc(O)c(O)c5Cl)c(O)c4-c4cc3ccc4O)C(O)c3ccc(c(Cl)c3)Oc3cc2cc(c3OC2OC(CO)C(O)C(O)C2OC2CC(C)(N)C(O)C(C)O2)Oc2ccc(cc2Cl)C1O` (some centres unmarked) [Compound 22], the MIC in test [1] is 16 µg/mL (≈ 9.38 µM); in the test on E. coli (tolC) JW5503-1, 32 µg/mL (≈ 18.8 µM); in test [2], > 64 µg/mL; with P. aeruginosa PAO1 it was > 64 µg/mL; in test [3], > 64 µg/mL; in test [4] it was 4 µg/mL (≈ 2.34 µM). Also, the MIC in the test with N. gonorrhoeae WHO-Z is > 64 µg/mL; in the test on S. aureus ATCC 29213, 64 µg/mL (≈ 37.5 µM).
As to `CNC(CC(C)C)C(=O)NC1C(=O)NC(CC(N)=O)C(=O)NC2C(=O)NC3C(=O)NC(C(=O)N[C@H](C(=O)O)c4cc(O)c(CNCCCCNC(=O)c5ccc(O)c(O)c5Cl)c(O)c4-c4cc3ccc4O)C(O)c3ccc(c(Cl)c3)Oc3cc2cc(c3OC2OC(CO)C(O)C(O)C2OC2CC(C)(N)C(O)C(C)O2)Oc2ccc(cc2Cl)C1O` (some centres unmarked) [Compound 23], the MIC in test [1] was 64 µg/mL (≈ 37.2 µM); with E. coli (tolC) JW5503-1, > 64 µg/mL; in test [2], > 64 µg/mL; in the test with P. aeruginosa PAO1, > 64 µg/mL; in test [3], > 64 µg/mL; in test [4], 8 µg/mL (≈ 4.65 µM). Further, the figures for the MIC in the test with N. gonorrhoeae WHO-Z and in the test with S. aureus ATCC 29213 were > 64 µg/mL and 64 µg/mL (≈ 37.2 µM), respectively.
With `CNC(CC(C)C)C(=O)NC1C(=O)NC(CC(N)=O)C(=O)NC2C(=O)NC3C(=O)NC(C(=O)N[C@H](C(=O)O)c4cc(O)c(CNCCNC(=O)c5cccc(O)c5O)c(O)c4-c4cc3ccc4O)C(O)c3ccc(c(Cl)c3)Oc3cc2cc(c3OC2OC(CO)C(O)C(O)C2OC2CC(C)(N)C(O)C(C)O2)Oc2ccc(cc2Cl)C1O` (some centres unmarked) [Compound 24], the MIC in test [1] was > 64 µg/mL; with E. coli (tolC) JW5503-1, > 64 µg/mL; in test [2], > 64 µg/mL; in the test with P. aeruginosa PAO1 it was > 64 µg/mL; in test [3], > 64 µg/mL; in test [4] it was 8 µg/mL (≈ 4.83 µM). The MIC in the test with N. gonorrhoeae WHO-Z was > 64 µg/mL; in the test with S. aureus ATCC 29213 it was 32 µg/mL (≈ 19.3 µM).
For `CNC(CC(C)C)C(=O)NC1C(=O)NC(CC(N)=O)C(=O)NC2C(=O)NC3C(=O)NC(C(=O)N[C@H](C(=O)O)c4cc(O)c(CNCCN[S@SP3](=O)(=O)c5ccc(O)c(O)c5)c(O)c4-c4cc3ccc4O)C(O)c3ccc(c(Cl)c3)Oc3cc2cc(c3OC2OC(CO)C(O)C(O)C2OC2CC(C)(N)C(O)C(C)O2)Oc2ccc(cc2Cl)C1O` (some centres unmarked) [Compound 25], the MIC in test [1] was 16 µg/mL (≈ 9.45 µM); in the test with E. coli (tolC) JW5503-1 it was 64 µg/mL (≈ 37.8 µM); in test [2], > 64 µg/mL; in the test on P. aeruginosa PAO1, > 64 µg/mL; in test [3] it was > 64 µg/mL; in test [4], 32 µg/mL (≈ 18.9 µM). In addition, the values for the MIC in the test on N. gonorrhoeae WHO-Z and in the test on S. aureus ATCC 29213 were > 64 µg/mL and 4 µg/mL (≈ 2.36 µM), respectively.
Turning to `CNC(CC(C)C)C(=O)NC1C(=O)NC(CC(N)=O)C(=O)NC2C(=O)NC3C(=O)NC(C(=O)N[C@H](C(=O)O)c4cc(O)c(CNCc5cn(CCCNC(=O)c6ccc(O)c(O)c6Cl)nn5)c(O)c4-c4cc3ccc4O)C(O)c3ccc(c(Cl)c3)Oc3cc2cc(c3OC2OC(CO)C(O)C(O)C2OC2CC(C)(N)C(O)C(C)O2)Oc2ccc(cc2Cl)C1O` (some centres unmarked) [Compound 27], the MIC was 16 µg/mL (≈ 8.95 µM) in test [1]; 64 µg/mL (≈ 35.8 µM) in the test with E. coli (tolC) JW5503-1; > 64 µg/mL in test [2]; > 64 µg/mL in the test with P. aeruginosa PAO1; > 64 µg/mL in test [3]; 16 µg/mL (≈ 8.95 µM) in test [4]. Besides, the MIC with N. gonorrhoeae WHO-Z is > 64 µg/mL; in the test on S. aureus ATCC 29213, 8 µg/mL (≈ 4.48 µM).
In the case of `CNC(CC(C)C)C(=O)NC1C(=O)NC(CC(N)=O)C(=O)NC2C(=O)NC3C(=O)NC(C(=O)N[C@H](C(=O)O)c4cc(O)cc(O)c4-c4cc3ccc4O)C(O)c3ccc(c(Cl)c3)Oc3cc2cc(c3OC2OC(CO)C(O)C(O)C2OC2CC(C)(NCCNC(=O)c3ccc(O)c(O)c3Cl)C(O)C(C)O2)Oc2ccc(cc2Cl)C1O` (some centres unmarked) [Compound 28], the MIC is > 64 µg/mL in test [1]; > 64 µg/mL in the test on E. coli (tolC) JW5503-1; > 64 µg/mL in test [2]; > 64 µg/mL in the test on P. aeruginosa PAO1; > 64 µg/mL in test [3]; 32 µg/mL (≈ 19.2 µM) in test [4]. Moreover, the MIC with N. gonorrhoeae WHO-Z is > 64 µg/mL; in the test with S. aureus ATCC 29213 it was 4 µg/mL (≈ 2.41 µM).
Consider `CC(C)C[C@H](C(=O)N[C@H]1C(=O)N[C@@H](CC(N)=O)C(=O)N[C@H]2C(=O)N[C@H]3C(=O)N[C@H](C(=O)N[C@H](C(=O)O)c4cc(O)cc(O)c4-c4cc3ccc4O)[C@H](O)c3ccc(c(Cl)c3)Oc3cc2cc(c3O[C@@H]2O[C@H](CO)C(O)C(O)[C@H]2O[C@H]2CC(C)(N)[C@H](O)[C@H](C)O2)Oc2ccc(cc2Cl)[C@H]1O)N(C)CCNC(=O)c1ccc(O)c(O)c1Cl` (some centres unmarked) [Compound 30], for which the MIC in test [1] is 64 µg/mL (≈ 38.5 µM); with E. coli (tolC) JW5503-1, > 64 µg/mL; in test [2], > 64 µg/mL; with P. aeruginosa PAO1, > 64 µg/mL; in test [3] it was > 64 µg/mL; in test [4] it was 32 µg/mL (≈ 19.2 µM). For the same compound, the MIC in the test with N. gonorrhoeae WHO-Z was > 64 µg/mL; with S. aureus ATCC 29213, 4 µg/mL (≈ 2.41 µM).
Turning to `CNC(CC(C)C)C(=O)NC1C(=O)NC(CC(N)=O)C(=O)NC2C(=O)NC3C(=O)NC(C(=O)N[C@H](C(=O)O)c4cc(O)cc(O)c4-c4cc3ccc4O)C(O)c3ccc(c(Cl)c3)Oc3cc2cc(c3OC2OC(CO)C(O)C(O)C2OC2CC(C)(NCCCc3cn(CCCNC(=O)c4ccc(O)c(O)c4Cl)nn3)C(O)C(C)O2)Oc2ccc(cc2Cl)C1O` (some centres unmarked) [Compound 31], the MIC in test [1] was > 64 µg/mL; in the test with E. coli (tolC) JW5503-1, 32 µg/mL (≈ 17.9 µM); in test [2], > 64 µg/mL; in the test with P. aeruginosa PAO1, > 64 µg/mL; in test [3], > 64 µg/mL; in test [4], 64 µg/mL (≈ 35.8 µM). In addition, the MIC was > 64 µg/mL in the test on N. gonorrhoeae WHO-Z and 8 µg/mL (≈ 4.48 µM) with S. aureus ATCC 29213.
As for `CC(C)CC(C(=O)NC1C(=O)NC(CC(N)=O)C(=O)NC2C(=O)NC3C(=O)NC(C(=O)N[C@H](C(=O)O)c4cc(O)cc(O)c4-c4cc3ccc4O)C(O)c3ccc(c(Cl)c3)Oc3cc2cc(c3OC2OC(CO)C(O)C(O)C2OC2CC(C)(N)C(O)C(C)O2)Oc2ccc(cc2Cl)C1O)N(C)CCCc1cn(CCCNC(=O)c2ccc(O)c(O)c2Cl)nn1` (some centres unmarked) [Compound 32], the MIC in test [1] was > 64 µg/mL; in the test with E. coli (tolC) JW5503-1 it was > 64 µg/mL; in test [2], > 64 µg/mL; in the test with P. aeruginosa PAO1, > 64 µg/mL; in test [3], > 64 µg/mL; in test [4] it was 32 µg/mL (≈ 17.9 µM). In addition, the MIC was > 64 µg/mL in the test on N. gonorrhoeae WHO-Z and 32 µg/mL (≈ 17.9 µM) with S. aureus ATCC 29213.
